# Assay results from article PMC10122656, “Siglec-6 mediates the uptake of extracellular vesicles through a noncanonical glycolipid binding pocket” (Nature Communications, 2023).
# Where “and” joins values, the source holds several entries; their conditions need not be identical. Equal values may be shown once.
# What was measured:
# [1] = test system: naïve B-cells; test: Liposome binding to peripheral blood naïve B-cells by flow cytometry; type: cell-based, human; details: sheet Figure S29, 5% GM3-DAG liposomes; cells not given
# Experimental: (§1) 200,000 cells/well were plated into a 96-well U-bottom microplate and centrifuged at 300 × g for 5 min. The cells were then resuspended in 50 µL of 50 µM liposome/50 µg/mL (protein concentration) of EV solution in DMEM F12 5% FBS and incubated at 37 °C for 30 min. Excess liposomes were then removed via centrifuged at 300 × g for 5 min followed by washing the cells with FACS solution. The cells were then resuspended in (1:250 V/V) anti-Siglec-flow buffer (1% V/V FBS, 500 µM, EDTA Hank’s Balanced Salt Solution pH 7.4), solution and left to rest on ice for 30 min. The cells were then centrifuged again at 300 × g for 5 min and the cells were resuspended in FACS buffer solution and were then ready for analysis by flow cytometry. Information regarding antibody clone, catalog number supplier, label isotype, and dilution can be found in Supplementary Table 6. The Siglec-positive cells were gated on for liposome-binding analysis (Supplementary Fig. 1b).
# (§2) Flow cytometry measurements were collected on a 5-laser Fortessa X-20 (BD Bioscience). All the resulting data were analyzed using FlowJo (10.5.3) software (BD Biosciences).
# [2] = molecular target: T1, CHO cells expressing Siglec-6 mutants (C46A, C172A, R to A mutants, F93A, L95A, G175M) (Homo sapiens, UniProt O43699, L95A); test: Cell assay (liposome/EV binding, flow cytometry); type: cell-based; details: sheet Figure S28b, 3% GM3-DAG liposomes, L95A;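 on liposome binding, fluorescence signal (replicates): AF647 fluorescence intensity from 0.1 mol% AF647–PEG45–DSPE in liposomes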
# T1 construct: These new CHO cell lines are the full-length versions of the Siglecs; expressed in transfected cells
# Experimental: (§3) Mutations were introduced into each Siglec via gene overlap extension PCR mutagenesis (primers were ordered through IDT). Mutagenesis primers can be found in Supplementary Tables 2 and 3 for the critical arginine mutants of the entire Siglec family and the additional Siglec-6 mutants respectively.
# as §1, §2
# [3] = molecular target: T2, CHO cells expressing Siglec-6 mutants (C46A, C172A, R to A mutants, F93A, L95A, G175M) (Homo sapiens, UniProt O43699, R112A); test: Cell assay (liposome/EV binding, flow cytometry); type: cell-based; details: sheet Figure S26a, 3% GM3-DAG liposomes, R112A;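 on liposome binding, fluorescence signal (replicates): AF647 fluorescence intensity from 0.1 mol% AF647–PEG45–DSPE in liposomes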
# T2 construct: These new CHO cell lines are the full-length versions of the Siglecs; expressed in transfected cells
# Experimental: as §3, §1, §2
# [4] = molecular target: T3, CHO cells expressing Siglec-6 mutants (C46A, C172A, R to A mutants, F93A, L95A, G175M) (Homo sapiens, UniProt O43699, E87A); test: Cell assay (liposome/EV binding, flow cytometry); type: cell-based; details: sheet Figure S28b, 3% GM3-DAG liposomes, E87A;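 on liposome binding, fluorescence signal (replicates): AF647 fluorescence intensity from 0.1 mol% AF647–PEG45–DSPE in liposomes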
# T3 construct: These new CHO cell lines are the full-length versions of the Siglecs; expressed in transfected cells
# Experimental: as §3, §1, §2
# [5] = molecular target: T4, CHO cells expressing Siglec-6 mutants (C46A, C172A, R to A mutants, F93A, L95A, G175M) (Homo sapiens, UniProt O43699, R114A); test: Cell assay (liposome/EV binding, flow cytometry); type: cell-based; details: sheet Figure S26a, 3% GM3-DAG liposomes, R114A;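 on liposome binding, fluorescence signal (replicates): AF647 fluorescence intensity from 0.1 mol% AF647–PEG45–DSPE in liposomes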
# T4 construct: These new CHO cell lines are the full-length versions of the Siglecs; expressed in transfected cells
# Experimental: as §3, §1, §2
# [6] = molecular target: T5, CHO cells expressing Siglec-6 mutants (C46A, C172A, R to A mutants, F93A, L95A, G175M) (Homo sapiens, UniProt O43699, F93A); test: Cell assay (liposome/EV binding, flow cytometry); type: cell-based; details: sheet Figure S28b, 3% GM3-DAG liposomes, F93A
# T5 construct: These new CHO cell lines are the full-length versions of the Siglecs; expressed in transfected cells
# Experimental: as §3, §1, §2
# [7] = molecular target: T6, CHO cells expressing Siglec-6 mutants (C46A, C172A, R to A mutants, F93A, L95A, G175M) (Homo sapiens, UniProt O43699, R147A); test: Cell assay (liposome/EV binding, flow cytometry); type: cell-based; details: sheet Figure S26a, 3% GM3-DAG liposomes, R147A
# T6 construct: These new CHO cell lines are the full-length versions of the Siglecs; expressed in transfected cells
# Experimental: as §3, §1, §2
# [8] = molecular target: T7, CHO cells expressing Siglec-6 mutants (C46A, C172A, R to A mutants, F93A, L95A, G175M) (Homo sapiens, UniProt O43699, R109A); test: Cell assay (liposome/EV binding, flow cytometry); type: cell-based; details: sheet Figure S26a, 3% GM3-DAG liposomes, R109A
# T7 construct: These new CHO cell lines are the full-length versions of the Siglecs; expressed in transfected cells
# Experimental: as §3, §1, §2
# [9] = molecular target: T8, CHO cells expressing Siglec-6 mutants (C46A, C172A, R to A mutants, F93A, L95A, G175M) (Homo sapiens, UniProt O43699, C46A); test: Cell assay (liposome/EV binding, flow cytometry); type: cell-based; details: sheet Figure S26a, 3% GM3-DAG liposomes, C46A
# T8 construct: These new CHO cell lines are the full-length versions of the Siglecs; expressed in transfected cells
# Experimental: as §3, §1, §2
# [10] = molecular target: T9, CHO cells expressing Siglec-6 mutants (C46A, C172A, R to A mutants, F93A, L95A, G175M) (Homo sapiens, UniProt O43699, E173A); test: Cell assay (liposome/EV binding, flow cytometry); type: cell-based; details: sheet Figure S28b, 3% GM3-DAG liposomes, E173A
# T9 construct: These new CHO cell lines are the full-length versions of the Siglecs; expressed in transfected cells
# Experimental: as §3, §1, §2
# [11] = molecular target: T10, CHO cells expressing Siglec-6 mutants (C46A, C172A, R to A mutants, F93A, L95A, G175M) (Homo sapiens, UniProt O43699, R92A); test: Cell assay (liposome/EV binding, flow cytometry); type: cell-based; details: sheet Figure S26a, 3% GM3-DAG liposomes, R92A
# T10 construct: These new CHO cell lines are the full-length versions of the Siglecs; expressed in transfected cells
# Experimental: as §3, §1, §2
# [12] = molecular target: T11, CHO cells expressing Siglec-6 mutants (C46A, C172A, R to A mutants, F93A, L95A, G175M) (Homo sapiens, UniProt O43699, R100A); test: Cell assay (liposome/EV binding, flow cytometry); type: cell-based; details: sheet Figure S26a, 3% GM3-DAG liposomes, R100A
# T11 construct: These new CHO cell lines are the full-length versions of the Siglecs; expressed in transfected cells
# Experimental: as §3, §1, §2
# [13] = molecular target: T12, CHO cells expressing Siglec-6 mutants (C46A, C172A, R to A mutants, F93A, L95A, G175M) (Homo sapiens, UniProt O43699, G175M); test: Cell assay (liposome/EV binding, flow cytometry); type: cell-based; details: sheet Figure S28b, 3% GM3-DAG liposomes, G175M
# T12 construct: These new CHO cell lines are the full-length versions of the Siglecs; expressed in transfected cells
# Experimental: as §3, §1, §2
# [14] = molecular target: T13, CHO cells expressing Siglec-6 mutants (C46A, C172A, R to A mutants, F93A, L95A, G175M) (Homo sapiens, UniProt O43699, R101A); test: Cell assay (liposome/EV binding, flow cytometry); type: cell-based; details: sheet Figure S26a, 3% GM3-DAG liposomes, R101A
# T13 construct: These new CHO cell lines are the full-length versions of the Siglecs; expressed in transfected cells
# Experimental: as §3, §1, §2
# [15] = molecular target: T14, CHO cells expressing Siglec-6 mutants (C46A, C172A, R to A mutants, F93A, L95A, G175M) (Homo sapiens, UniProt O43699, R113A); test: Cell assay (liposome/EV binding, flow cytometry); type: cell-based; details: sheet Figure S26a, 3% GM3-DAG liposomes, R113A
# T14 construct: These new CHO cell lines are the full-length versions of the Siglecs; expressed in transfected cells
# Experimental: as §3, §1, §2
# [16] = molecular target: T15, R92K Siglec-6 CHO cells (Homo sapiens, UniProt O43699, R92K); test: Cell assay (liposome/EV binding, flow cytometry); type: cell-based
# T15 construct: These new CHO cell lines are the full-length versions of the Siglecs; expressed in transfected cells
# Experimental: as §3
# as §1, with “The Siglec-positive cells were gated on for liposome-binding analysis (Supplementary Fig. 1b).” left out
# as §2
# [17] = test system: CHO cells expressing Siglec-6 mutants (C46A, C172A, R to A mutants, F93A, L95A, G175M); test: Cell assay (liposome/EV binding, flow cytometry); type: cell-based, human; details: cell assay
# Experimental: as §3, §1, §2
# T10 sequence (O43699 27-453 R92A): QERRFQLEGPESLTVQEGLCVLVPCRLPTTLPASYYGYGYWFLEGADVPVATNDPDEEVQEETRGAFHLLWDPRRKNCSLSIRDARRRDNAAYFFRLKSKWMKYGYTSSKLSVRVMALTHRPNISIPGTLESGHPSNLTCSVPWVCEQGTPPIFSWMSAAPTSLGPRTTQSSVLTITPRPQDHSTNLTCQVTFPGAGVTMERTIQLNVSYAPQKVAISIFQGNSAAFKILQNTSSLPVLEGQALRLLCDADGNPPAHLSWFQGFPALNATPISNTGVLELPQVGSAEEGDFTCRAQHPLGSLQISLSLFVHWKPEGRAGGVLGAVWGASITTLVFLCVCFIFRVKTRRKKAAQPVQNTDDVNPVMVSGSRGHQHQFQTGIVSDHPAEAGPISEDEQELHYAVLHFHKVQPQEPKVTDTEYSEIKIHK
# T11 sequence (O43699 27-453 R100A): as the sequence (O43699 27-453 R92A) above, with A66R, R74A counted along it
# T3 sequence (O43699 27-453 E87A): as the sequence (O43699 27-453 R92A) above, with E61A, A66R counted along it
# T13 sequence (O43699 27-453 R101A): as the sequence (O43699 27-453 R92A) above, with A66R, R75A counted along it
# T14 sequence (O43699 27-453 R113A): as the sequence (O43699 27-453 R92A) above, with A66R, R87A counted along it
# T2 sequence (O43699 27-453 R112A): as the sequence (O43699 27-453 R92A) above, with A66R, R86A counted along it
# T15 sequence (O43699 27-453 R92K): as the sequence (O43699 27-453 R92A) above, with A66K counted along it
# T9 sequence (O43699 27-453 E173A): as the sequence (O43699 27-453 R92A) above, with A66R, E147A counted along it
# T12 sequence (O43699 27-453 G175M): as the sequence (O43699 27-453 R92A) above, with A66R, G149M counted along it
# T5 sequence (O43699 27-453 F93A): as the sequence (O43699 27-453 R92A) above, with A66R, F67A counted along it
# T6 sequence (O43699 27-453 R147A): as the sequence (O43699 27-453 R92A) above, with A66R, R121A counted along it
# T4 sequence (O43699 27-453 R114A): as the sequence (O43699 27-453 R92A) above, with A66R, R88A counted along it
# T7 sequence (O43699 27-453 R109A): as the sequence (O43699 27-453 R92A) above, with A66R, R83A counted along it
# T8 sequence (O43699 27-453 C46A): as the sequence (O43699 27-453 R92A) above, with C20A, A66R counted along it
# T1 sequence (O43699 27-453 L95A): as the sequence (O43699 27-453 R92A) above, with A66R, L69A counted along it
smiles,measurement,setting,value
CCCCCCCCCCCCCCCCOCC(COCCCCCCCCCCCCCCCC)OCc1cn(CCO[C@@H]2O[C@H](CO)[C@@H](O[C@@H]3O[C@H](CO)[C@H](O)[C@H](O[C@]4(C(=O)O)C[C@H](O)[C@@H](NC(C)=O)[C@H]([C@H](O)[C@H](O)CO)O4)[C@H]3O)[C@H](O)[C@H]2O)nn1 [GM3-DAG],"liposome binding, fluorescence signal (replicates)",[1],154 and 151 and 136 and 149
same,"liposome binding, fluorescence signal (replicates)",[2],497 and 522 and 557 and 567
same,"liposome binding, fluorescence signal (replicates)",[3],4575 and 4566 and 3393 and 4882
same,"liposome binding, fluorescence signal (replicates)",[4],2391 and 2152 and 2127
same,"liposome binding, fluorescence signal (replicates)",[5],3286 and 2523 and 2193 and 4407
same,"liposome binding, fluorescence signal (replicates)",[6],1045 and 1034 and 1148
same,"liposome binding, fluorescence signal (replicates)",[7],10179 and 9364 and 9449 and 10723
same,"liposome binding, fluorescence signal (replicates)",[8],3678 and 3427 and 3246 and 4185
same,"liposome binding, fluorescence signal (replicates)",[9],789 and 784 and 873 and 937
same,"liposome binding, fluorescence signal (replicates)",[10],1703 and 1773 and 1881 and 1652
same,"liposome binding, fluorescence signal (replicates)",[11],242 and 228 and 244 and 252
same,"liposome binding, fluorescence signal (replicates)",[12],2485 and 2181 and 2573 and 2894
same,"liposome binding, fluorescence signal (replicates)",[13],928 and 1026 and 962 and 868
same,"liposome binding, fluorescence signal (replicates)",[14],5191 and 3671 and 4272 and 5125
same,"liposome binding, fluorescence signal (replicates)",[15],4924 and 3926 and 3532 and 5592
CCCCCCCCCCCCCCCCOCC(COCCCCCCCCCCCCCCCC)OCc1cn(CCO[C@@H]2O[C@H](CO)[C@@H](O[C@@H]3O[C@H](CO)[C@H](O)[C@H](O[C@]4(C(=O)O)C[C@H](O)[C@@H](NC(C)=O)[C@H]([C@H](O)[C@H](O)CO)O4)[C@H]3O)[C@H](O)[C@H]2O)nn1 [nGL 5],"5 liposome binding gated on identical Siglec-6 expression levels, MFI (Fig. S26e)","[16]; R92K Siglec-6, replicates",29.25 and 36.25 and 24.25
same,5 nGLL binding to R92K Siglec-6 CHO cells,"[16]; cell assay, expression 42% of WT",minimal binding
same,5 nGLL binding to C46A and C172A mutants of Siglec-6,[17],did not recognize
same,"5 nGLL binding to F93A, L95A and G175M Siglec-6 mutants",[17],significantly decreased binding
same,5 nGLL binding to R109A and R114A Siglec-6 mutants,[17],modest reduction in binding
same,5 nGLL binding to R92A and R100A Siglec-6 mutants,[17]; both expressed at low levels,more pronounced reduction in binding
